In article PMC9146474, “3-(((1S,3S)-3-((R)-Hydroxy(4-(trifluoromethyl)phenyl)methyl)-4-oxocyclohexyl)methyl)pentane-2,4-dione: Design and Synthesis of New Stereopure Multi-Target Antidiabetic Agent” (Molecules, 2022):

Tests used:
α-glucosidase = α-glucosidase (Saccharomyces cerevisiae, UniProt P53341); type: biochemical
Description: The α-glucosidase inhibitory activity on the S,S,R-5 was performed as per the reported protocols. […] The α-glucosidase solution (0.5 units/mL) was prepared in phosphate buffer (0.1 M, 6.90 pH). p-Nitrophenyl-α-D-glucopyranoside (5 mM) was added as substrate solution to the buffer solution. Different concentrations of the compound, i.e., 500, 250, 125, 62.5, and 31.25 μM were prepared. The enzyme solutions were mixed with the compound’s solution and were incubated for 15 min at 37 °C. To these solutions were added the pre-prepared substrate solution and the repetition of incubation. The final reaction was completed with the addition of sodium carbonate solution (0.2 M, 80 μL). The combined solution excluding the α-glucosidase was used as a blank solution. The absorbances of the solutions were recorded at 405 nm. The observations were repeated three times. The percent inhibitions at each concentration and the IC50 values were calculated according to the standard formula [48].

[1] = DPPH free radical scavenging assay (antioxidant assay)
Description: To supplement the role of free radicals in diabetes, the free radical scavenging potential of compound S,S,R-5 was also determined as per the standard method. Different concentrations of the stereopure compound were prepared and DPPH solution in methanol (0.004%) were added to it. The solutions were incubated for half an hour. The absorbances of the solutions were recorded at 517 nm. The observations were repeated three times. The percent inhibitions at each concentration and the IC50 values were calculated according to the standard formula [52].

albino mice = conditions: mouse, in vivo
Description: We also tested the toxicity profile of our compound S,S,R-5 by using the simple acute toxicity test in experimental albino mice. The mice were acquired and used in the animal house of our university as per the standard guidelines of the departmental ethical committee. As per the standard procedure, we gave various concentrations of compound S,S,R-5 to albino mice and observed them for the next 72 h.

[2] = target: T1, protein tyrosine phosphatase 1B (PTP-1B) (Homo sapiens, UniProt P18031); assay: Protein tyrosine phosphatase 1B inhibition; type: biochemical; conditions: for inhibition at 31.25 µM: 31.25 μM/mL; for inhibition at 31.25 µM / inhibition at 62.5 µM / inhibition at 125 µM / inhibition at 250 µM: read-out: PTP-1B Percent Inhibition (converted); for inhibition at 62.5 µM: 62.5 μM/mL; for inhibition at 125 µM: 125 μM/mL; for inhibition at 250 µM: 250 μM/mL; for inhibition at 500 µM: 500 μM/mL
T1 sequence (P18031 1-435): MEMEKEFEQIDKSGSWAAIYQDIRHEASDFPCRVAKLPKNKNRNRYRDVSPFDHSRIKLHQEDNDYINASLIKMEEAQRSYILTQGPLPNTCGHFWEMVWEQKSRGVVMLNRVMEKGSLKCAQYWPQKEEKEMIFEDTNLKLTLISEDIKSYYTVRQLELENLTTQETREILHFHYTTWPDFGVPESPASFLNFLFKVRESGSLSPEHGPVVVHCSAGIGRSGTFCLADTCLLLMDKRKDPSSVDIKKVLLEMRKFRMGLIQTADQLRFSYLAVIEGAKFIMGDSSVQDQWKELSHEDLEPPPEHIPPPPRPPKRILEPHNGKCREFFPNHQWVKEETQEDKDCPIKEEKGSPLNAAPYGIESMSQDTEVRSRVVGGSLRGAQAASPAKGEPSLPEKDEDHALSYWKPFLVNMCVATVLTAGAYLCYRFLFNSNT
Description: A buffer solution with pH 7 of 3,3-dimethyl glutarate was used. […] All the solutions were incubated at 27 °C for 40 min. The absorbances of the solutions were recorded at 405 nm. The observations were repeated three times. The percent inhibitions at each concentration and the IC50 values were calculated according to the standard formula.

α-amylase = assay: In-vitro α-amylase inhibition; type: biochemical
Description: The potential of stereopure S,S,R-5 against the α-amylase was also determined as per the protocols. The enzyme solution was prepared in the phosphate buffer and was mixed with different concentrations of the compound to allow the reaction. All the solutions were incubated as per the method. Dinitrosalicylic acid was added to the compound and standard solutions. The respective solutions were heated in water baths for a few minutes. The absorbances of the solutions were recorded at 656 nm. The observations were repeated three times. The percent inhibitions at each concentration and the IC50 values were calculated according to the standard formula [50].

[3] = 500 μM/mL, listed as minor diastereomer (S,S,R-5)

Sequence of α-glucosidase (P53341 whole entry): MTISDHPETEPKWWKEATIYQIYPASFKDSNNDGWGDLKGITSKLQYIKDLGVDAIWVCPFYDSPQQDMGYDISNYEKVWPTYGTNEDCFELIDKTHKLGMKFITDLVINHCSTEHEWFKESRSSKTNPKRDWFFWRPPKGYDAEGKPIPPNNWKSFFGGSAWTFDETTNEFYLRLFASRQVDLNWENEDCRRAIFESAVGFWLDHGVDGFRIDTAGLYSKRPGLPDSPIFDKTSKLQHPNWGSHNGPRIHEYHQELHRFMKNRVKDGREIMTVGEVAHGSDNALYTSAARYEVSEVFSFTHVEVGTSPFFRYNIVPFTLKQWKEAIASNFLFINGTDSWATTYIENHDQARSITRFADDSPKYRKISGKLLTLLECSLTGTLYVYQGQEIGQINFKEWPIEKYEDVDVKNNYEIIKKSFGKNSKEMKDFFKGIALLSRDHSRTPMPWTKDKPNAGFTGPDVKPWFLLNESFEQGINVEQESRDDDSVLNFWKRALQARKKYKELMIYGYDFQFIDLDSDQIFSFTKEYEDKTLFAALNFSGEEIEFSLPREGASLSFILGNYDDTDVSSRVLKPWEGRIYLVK

In the case of C[C@H]1O[C@H](O[C@H]2[C@H](O)[C@@H](O)[C@@H](O[C@H]3[C@H](O)[C@@H](O)C(O)O[C@@H]3CO)O[C@@H]2CO)[C@H](O)[C@@H](O)[C@@H]1N[C@H]1C=C(CO)[C@@H](O)[C@H](O)[C@H]1O (some centres unmarked) [Acarbose], the “α-Glucosidase % Inhibition” value (α-glucosidase) is reported as 95.20 ± 0.15 91.17 ± 0.53 86.98 ± 0.85 81.20 ± 0.65 77.80 ± 0.37% and the “α-Glucosidase Percent Inhibition” value (α-glucosidase) is reported as 95.20 ± 0.15 91.17 ± 0.53 86.98 ± 0.85 81.20 ± 0.65 77.80 ± 0.37%.

With CC(=O)C(C[C@H]1CCC(=O)[C@H]([C@@H](O)c2ccc(C(F)(F)F)cc2)C1)C(C)=O [S,S,R-5, 3-(((1S,3S)-3-((R)-hydroxy(4-(trifluoromethyl)phenyl)methyl)-4-oxocyclohexyl)methyl)pentane-2,4-dione] the IC50 [1] was 2360 ± 100 nM, the “DPPH Percent Inhibition” value ([1]; 31.25 μM/mL) was 71.90 ± 0.45% and the “DPPH Percent Inhibition” value ([1]; 62.5 μM/mL) was 76.00 ± 0.30%. For the same compound, the “DPPH Percent Inhibition” value ([1]; 125 μM/mL) was 81.90 ± 0.60%, the “DPPH Percent Inhibition” value ([1]; 250 μM/mL) was 87.45 ± 0.90% and the “Acute toxicity: behavioral changes or lethality” value (albino mice) was “no unwanted behavioral changes or lethality”. It also gave an IC50 [2] of 910 ± 100 nM, an inhibition at 31.25 µM [2] of 73.7% and an inhibition at 62.5 µM [2] of 76.2%. For the same compound, the inhibition at 125 µM [2] was 79.6%, the inhibition at 250 µM [2] was 84.4% and the IC50 (α-amylase) was 4.58 ± 0.14 µM. The “α-Amylase Percent Inhibition” value (α-amylase; 31.25 μM/mL) was 58.47 ± 0.56%, the “α-Amylase Percent Inhibition” value (α-amylase; 62.5 μM/mL) was 62.28 ± 0.57% and the “α-Amylase Percent Inhibition” value (α-amylase; 125 μM/mL) was 68.90 ± 0.96%. For the same compound, the “α-Amylase Percent Inhibition” value (α-amylase; 250 μM/mL) was 73.08 ± 0.47%.

C[C@H]1[C@H](C)CC[C@]2(C(=O)O)CC[C@]3(C)C(=CC[C@@H]4[C@@]5(C)CC[C@H](O)C(C)(C)[C@@H]5CC[C@]43C)[C@H]12 [Ursolic acid, reference compound] gave an inhibition at 31.25 µM [2] of 76%, an inhibition at 62.5 µM [2] of 78.3% and an inhibition at 125 µM [2] of 82.3%. It also gave an inhibition at 250 µM [2] of 87.2% and an inhibition at 500 µM [2] of 90.83 ± 0.47%.

In the case of CC(=O)C(CC1CCC(=O)C(C(O)c2ccc(C(F)(F)F)cc2)C1)C(C)=O [minor (S,S,R-5)], the “DPPH % Inhibition” value [1, 3] is reported as 70.21%, the inhibition at 500 µM [2] is reported as 65.4% and the “α-Amylase % Inhibition” value (α-amylase; [3]) is reported as 72.65%.
